# According to ChEMBL document CHEMBL1201862, “PubChem BioAssay data set” (2004):
#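 Cultured in 96-well plates, cells were exposed to test compound for 48 hours across five concentrations. GI50: concentration for 50% inhibition of growth.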 Active and inactive are the calls of the source. No stated cut-off is given here; in the data, active = GI50 up to about 1.1 µM and inactive = higher.
# Experiments:
# Test in all cases: growth of human tumour cells (NCI), 48 h
# RXF 393 = tested on: RXF 393
# SK-MEL-5 = tested on: SK-MEL-5
# HL-60 = tested on: HL-60
# SW-620 = tested on: SW-620
# SNB-75 = tested on: SNB-75
# Hs-578T = tested on: Hs-578T
# CAKI-1 = tested on: CAKI-1
# SF-539 = tested on: SF-539
# IGROV-1 = tested on: IGROV-1
# SF-268 = tested on: SF-268
# 786-0 = tested on: 786-0
# MCF7 = tested on: MCF7
# TK-10 = tested on: TK-10
# UACC-257 = tested on: UACC-257
# UACC-62 = tested on: UACC-62
# SR = tested on: SR
# ACHN = tested on: ACHN
# NCI-H23 = tested on: NCI-H23
# NCI-H226 = tested on: NCI-H226
# SK-OV-3 = tested on: SK-OV-3
# RPMI-8226 = tested on: RPMI-8226
# MDA-MB-231 = tested on: MDA-MB-231
# OVCAR-8 = tested on: OVCAR-8
# CCRF-CEM = tested on: CCRF-CEM
# OVCAR-5 = tested on: OVCAR-5
# HT-29 = tested on: HT-29
# BT-549 = tested on: BT-549
# M14 = tested on: M14
# HOP-62 = tested on: HOP-62
# T47D = tested on: T47D
# SN12C = tested on: SN12C
# NCI-H522 = tested on: NCI-H522
# HCT-15 = tested on: HCT-15
# SF-295 = tested on: SF-295
# LOX IMVI = tested on: LOX IMVI
# NCI-H460 = tested on: NCI-H460
# COLO 205 = tested on: COLO 205
# PC-3 = tested on: PC-3
# HCT-116 = tested on: HCT-116
# HCC 2998 = tested on: HCC 2998
# NCI/ADR-RES = tested on: NCI/ADR-RES
# MDA-MB-435 = tested on: MDA-MB-435
# HOP-92 = tested on: HOP-92
# KM12 = tested on: KM12
# DU-145 = tested on: DU-145
# SNB-19 = tested on: SNB-19
# SK-MEL-2 = tested on: SK-MEL-2
# OVCAR-3 = tested on: OVCAR-3
# A549 = tested on: A549
# EKVX = tested on: EKVX
# SK-MEL-28 = tested on: SK-MEL-28
# A498 = tested on: A498
# OVCAR-4 = tested on: OVCAR-4
# MDA-N = tested on: MDA-N
# U-251 = tested on: U-251
# UO-31 = tested on: UO-31
# K562 = tested on: K562
# MOLT-4 = tested on: MOLT-4
smiles,measurement,setting,value
CC[C@@H]([C@H](O)c1ccccc1Cl)[N+](=O)[O-],GI50,RXF 393,> 100000 nM (inactive)
same,GI50,SK-MEL-5,> 100000 nM (inactive)
same,GI50,HL-60,7820 nM (inactive)
same,GI50,SW-620,42900 nM (inactive)
same,GI50,SNB-75,65600 nM (inactive)
same,GI50,Hs-578T,> 100000 nM (inactive)
same,GI50,CAKI-1,> 100000 nM (inactive)
same,GI50,SF-539,59000 nM (inactive)
same,GI50,IGROV-1,> 100000 nM (inactive)
same,GI50,SF-268,> 100000 nM (inactive)
same,GI50,786-0,> 100000 nM (inactive)
same,GI50,MCF7,16400 nM (inactive)
same,GI50,TK-10,> 100000 nM (inactive)
same,GI50,UACC-257,> 100000 nM (inactive)
same,GI50,UACC-62,> 100000 nM (inactive)
same,GI50,SR,324 nM (active)
same,GI50,ACHN,> 100000 nM (inactive)
same,GI50,NCI-H23,> 100000 nM (inactive)
same,GI50,NCI-H226,> 100000 nM (inactive)
same,GI50,SK-OV-3,> 100000 nM (inactive)
same,GI50,RPMI-8226,91800 nM (inactive)
same,GI50,MDA-MB-231,> 100000 nM (inactive)
same,GI50,OVCAR-8,> 100000 nM (inactive)
same,GI50,CCRF-CEM,19200 nM (inactive)
same,GI50,OVCAR-5,> 100000 nM (inactive)
same,GI50,HT-29,> 100000 nM (inactive)
same,GI50,BT-549,> 100000 nM (inactive)
same,GI50,M14,> 100000 nM (inactive)
same,GI50,HOP-62,54600 nM (inactive)
same,GI50,T47D,> 100000 nM (inactive)
same,GI50,SN12C,> 100000 nM (inactive)
same,GI50,NCI-H522,90400 nM (inactive)
same,GI50,HCT-15,1330 nM
same,GI50,SF-295,> 100000 nM (inactive)
same,GI50,LOX IMVI,> 100000 nM (inactive)
same,GI50,NCI-H460,> 100000 nM (inactive)
same,GI50,COLO 205,> 100000 nM (inactive)
same,GI50,PC-3,61400 nM (inactive)
same,GI50,HCT-116,4250 nM (inactive)
same,GI50,HCC 2998,> 100000 nM (inactive)
same,GI50,NCI/ADR-RES,> 100000 nM (inactive)
same,GI50,MDA-MB-435,25800 nM (inactive)
same,GI50,HOP-92,> 100000 nM (inactive)
same,GI50,KM12,> 100000 nM (inactive)
same,GI50,DU-145,> 100000 nM (inactive)
same,GI50,SNB-19,> 100000 nM (inactive)
same,GI50,SK-MEL-2,> 100000 nM (inactive)
same,GI50,OVCAR-3,> 100000 nM (inactive)
same,GI50,A549,> 100000 nM (inactive)
same,GI50,EKVX,> 100000 nM (inactive)
same,GI50,SK-MEL-28,> 100000 nM (inactive)
same,GI50,A498,> 100000 nM (inactive)
same,GI50,OVCAR-4,> 100000 nM (inactive)
same,GI50,MDA-N,2350 nM (inactive)
same,GI50,U-251,> 100000 nM (inactive)
same,GI50,UO-31,> 100000 nM (inactive)
CC(=O)O[C@H]1C(=O)[C@@]2(C)C(C(OC(=O)c3ccccc3)[C@]3(O)CC(OC(=O)C(O)C(NC(=O)c4ccccc4)c4ccc(F)cc4)C(C)=C1C3(C)C)[C@]1(OC(C)=O)CO[C@@H]1C[C@@H]2O (some centres not stated),GI50,RXF 393,< 1 nM (active)
same,GI50,SK-MEL-5,3.75 nM (active)
same,GI50,HL-60,< 1 nM (active)
same,GI50,SW-620,< 1 nM (active)
same,GI50,SNB-75,1.68 nM (active)
same,GI50,Hs-578T,< 1 nM (active)
same,GI50,CAKI-1,94.2 nM (active)
same,GI50,SF-539,< 1 nM (active)
same,GI50,IGROV-1,3.65 nM (active)
same,GI50,SF-268,< 1 nM (active)
same,GI50,786-0,1.52 nM (active)
same,GI50,MCF7,< 1 nM (active)
same,GI50,TK-10,29.6 nM (active)
same,GI50,UACC-257,1170 nM (inactive)
same,GI50,UACC-62,1.38 nM (active)
same,GI50,K562,< 1 nM (active)
same,GI50,SR,< 1 nM (active)
same,GI50,ACHN,13.9 nM (active)
same,GI50,NCI-H23,1.1 nM (active)
same,GI50,SK-OV-3,3.71 nM (active)
same,GI50,RPMI-8226,< 1 nM (active)
same,GI50,MDA-MB-231,1.81 nM (active)
same,GI50,OVCAR-8,1.64 nM (active)
same,GI50,CCRF-CEM,1.4 nM (active)
same,GI50,OVCAR-5,1.41 nM (active)
same,GI50,HT-29,< 1 nM (active)
same,GI50,BT-549,1.52 nM (active)
same,GI50,M14,1.64 nM (active)
same,GI50,HOP-62,2.33 nM (active)
same,GI50,T47D,9.66 nM (active)
same,GI50,SN12C,1.58 nM (active)
same,GI50,NCI-H522,< 1 nM (active)
same,GI50,HCT-15,12.8 nM
same,GI50,SF-295,4.01 nM (active)
same,GI50,LOX IMVI,1.29 nM (active)
same,GI50,NCI-H460,< 1 nM (active)
same,GI50,COLO 205,< 1 nM (active)
same,GI50,PC-3,< 1 nM (active)
same,GI50,HCT-116,< 1 nM (active)
same,GI50,HCC 2998,1.24 nM (active)
same,GI50,NCI/ADR-RES,647 nM (active)
same,GI50,MDA-MB-435,< 1 nM (active)
same,GI50,HOP-92,3430 nM (inactive)
same,GI50,KM12,< 1 nM (active)
same,GI50,MOLT-4,3.59 nM (active)
same,GI50,DU-145,1.26 nM (active)
same,GI50,SNB-19,2.52 nM (active)
same,GI50,SK-MEL-2,1.33 nM (active)
same,GI50,OVCAR-3,< 1 nM (active)
same,GI50,A549,1.04 nM (active)
same,GI50,EKVX,8.57 nM (active)
same,GI50,A498,< 1 nM (active)
same,GI50,OVCAR-4,90.4 nM (active)
same,GI50,MDA-N,< 1 nM (active)
same,GI50,U-251,1.24 nM (active)
same,GI50,UO-31,166 nM (active)
